Source: PubChem BioAssay AID463199 (Broad Institute, 2010)
Calls of active or inactive are those of the source.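 The calls were made as follows: active = AC50, the dose giving half-maximal effect, exceeds a fixed cutoff for a compound that rescues yeast growth under heat; inactive = the rest, inconclusive results apart.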

What follows are compounds tested on S. cerevisiae Burl-1 ts mutant growth, BacTiter-Glo, 38.5C 24 h (assay: growth induction of Burl-1 ts yeast mutant, dose response, counter-screen for SUMOylation pathway inhibitor project, whole organism, S. cerevisiae, luminescence (AID 463199)).

| Structure (SMILES) | AC50 |
| --- | --- |
| Cc1ccc(NC(=O)/C=N/OCC(=O)NCc2ccccc2Cl)cc1 | > 42 µM (inactive) |
| CC1(C)C(C=C(Cl)Cl)C1C(=O)OCc1cccc(Oc2ccccc2)c1 (stereo not given) | > 42 µM (inactive) |
| CCOC(=O)C1=C(C)Nc2ncnn2C1/C=C/c1ccccc1 (stereo not given) | > 42 µM (inactive) |
| O=C(OCC(=O)N1CCN(c2ccccc2)CC1)c1nc(Cl)ccc1Cl | > 42 µM (inactive) |
| Cc1ccc(SC[C@H](C)CN2CC[C@H](C)CCC2=O)cc1 | > 42 µM (inactive) |
| CCOc1ccc(NC(=O)CN(C)C(=O)c2ccc(OCc3ccccc3)c(OC)c2)cc1OCC | > 42 µM (inactive) |
| COc1ccc2c(c1)[C@@]13CCC=C[C@H]1[C@@H](C2)NCC3 | > 42 µM (inactive) |
| Nc1cccc2c1C(=O)N(c1ccccc1)C2=O | > 42 µM (inactive) |
| Cc1nc(-c2ccc(Cl)cc2)sc1C1(C)CC(c2c(Cl)cccc2Cl)=NO1 (stereo not given) | > 42 µM (inactive) |
| COc1ccc(N2CCN(C3CCCN(Cc4cccc(OC)c4)C3)CC2)cc1 (stereo not given) | > 42 µM (inactive) |
| CC1=CC(=O)C(C(C)C)=C/C1=N/OS(=O)(=O)c1ccccc1 | > 50 µM (inactive) |
| CC(=O)/C(N)=N/Nc1cccc(Cl)c1 | > 42 µM (inactive) |
| CCN1C(=O)N(C)[C@@H](c2ccccc2)C(C(=O)OC)=C1C | > 42 µM (inactive) |
| CCN1C(=NCC(C)C)N[C@@H](c2cccc(C(F)(F)F)c2)C(C(=O)OC)=C1C | > 42 µM (inactive) |
| CC(C)(C)C(=O)C(Cl)C(=O)Nc1ccccc1 (stereo not given) | > 42 µM (inactive) |
| O=C(NC1CCCCC1)N(Cc1cc2cc3c(cc2[nH]c1=O)OCCO3)C1CCCCC1 | > 42 µM (inactive) |
| CCCCn1c(=O)[nH]c(=O)c2c1nc(COc1ccc(C#N)cc1)n2CCC | > 42 µM (inactive) |
| CCN(C(=O)Cn1nc(C)c([N+](=O)[O-])c1C)c1c(N)n(Cc2ccccc2)c(=O)[nH]c1=O | > 42 µM (inactive) |
| C/C(=N\NC(=O)c1cccc(N/N=C(\C)c2ccc([N+](=O)[O-])cc2)c1)c1ccc([N+](=O)[O-])cc1 | > 42 µM (inactive) |
| O=Cc1cn(Cc2ccccc2F)c2ccccc12 | > 42 µM (inactive) |
| O=C(CN1CCN(c2nc(-c3ccccc3)cs2)CC1)NNC(=O)c1ccc(Br)cc1 | > 42 µM (inactive) |
| O=C(Cc1ccc(F)cc1)Nc1nc(-c2ccc(F)cc2)cs1 | > 42 µM (inactive) |
| CC(Oc1ccccc1)C(=O)Nc1ccccc1O (stereo not given) | > 42 µM (inactive) |
| CN(C)c1ccc2nc3ccc(=[N+](C)C)cc-3sc2c1 | > 42 µM (inactive) |
| O=Nc1c(-c2cccc([N+](=O)[O-])c2)nc2ncccn12 | > 42 µM (inactive) |

| Structure (SMILES) | AC50 |
| --- | --- |
| NC(=O)C1CCN(C2CC(=O)N(c3ccc(F)c(Cl)c3)C2=O)CC1 (stereo not given) | > 42 µM (inactive) |
| CCCCn1c(N)c(N(CCOC)C(=O)c2cnccn2)c(=O)[nH]c1=O | > 42 µM (inactive) |
| CCCCOCCCNS(=O)(=O)Cc1ccccc1 | > 42 µM (inactive) |
| Cc1nnc(N=c2ssnc2Cl)o1 | > 42 µM (inactive) |
| O=C(COC(=O)Cc1ccsc1)NC1CCCCCC1 | > 42 µM (inactive) |
| COC(=O)c1ccc(CN2CCN(C3CCCCC3)C(CCO)C2)cc1 (stereo not given) | > 42 µM (inactive) |
| CCN(CC(=O)N1CCCCCC1)S(=O)(=O)c1ccc(Cl)cc1 | > 42 µM (inactive) |
| O=C(NCC1CCCO1)c1nn2c(C(F)(F)F)cc(-c3cc(Br)cs3)nc2c1Br (stereo not given) | > 42 µM (inactive) |
| COCCn1c(C)cc(C(=O)CN2C(=O)NC3(CCCCCCC3)C2=O)c1C | > 42 µM (inactive) |
| Nc1ccc(N2CCN(c3ccc(F)cc3)CC2)cc1 | > 42 µM (inactive) |
| CC1CN(Cc2ccccc2)c2nc3c(c(=O)[nH]c(=O)n3C)n2C1 (stereo not given) | > 42 µM (inactive) |
| CCN(CC)S(=O)(=O)c1ccc(C(=O)NCCc2cc3c(OC)ccc(OC)c3[nH]c2=O)cc1 | > 42 µM (inactive) |
| O=c1[nH]cnc2cc(Cl)ccc12 | 4 µM |
| CN(CC(=O)NCc1cccs1)S(=O)(=O)c1cccc2nsnc12 | > 42 µM (inactive) |
| C/C(=N\N=C(/N)SC1CC(=O)N(c2cccc(Cl)c2)C1=O)c1cccs1 (stereo not given) | > 42 µM (inactive) |
| CCOC(=O)C1CCN(C(=O)c2sccc2Cl)CC1 | > 42 µM (inactive) |
| COc1ccccc1N1CCN(C(=O)c2ccc(-c3ccccc3)cc2)CC1 | > 42 µM (inactive) |
| O=C(CCCC(=O)N(CC(=O)NC1CCCC1)c1cccc(F)c1)Nc1ccccn1 | > 42 µM (inactive) |
| CCC(C)(C)n1nnnc1C(c1cccnc1)N1CCC(Cc2ccccc2)CC1 (stereo not given) | > 42 µM (inactive) |
| S=c1[nH]nc(-c2ccccn2)n1/N=C/c1ccccc1 | > 42 µM (inactive) |
| C/C(O)=C(\N=Nc1cc(C)ccc1O)C(N)=O | > 42 µM (inactive) |
| CCOc1ccc(/C=N/NS(=O)(=O)c2ccc(C)cc2)cc1OC | > 42 µM (inactive) |
| CCc1ccc(NC(=S)N(Cc2cccc(Br)c2)CC2CCC(C(=O)O)CC2)cc1 (stereo not given) | > 42 µM (inactive) |
| Cc1cc(=O)n2[nH]c(-c3ccc(F)cc3)nc2n1 | > 42 µM (inactive) |
| N#C/C(=C/c1ccc(N2CCCCC2)o1)C(=O)Nc1ccc(Cl)cc1 | > 42 µM (inactive) |
